For one assay, the target named is T1, mVps29 (Mus musculus, UniProt Q9QZ88).
T1 construct: GST (thrombin site) (N, cleaved yes); made in house; host or cells: E. coli BL21(DE3)
The assay is described as follows: ITC, binding to mVps29. The settings on record: ITC, mVps29. The protocol: (§1) All the bacterial constructs were expressed in BL21(DE3) competent cells using standard isopropyl 1-thio-β-D-galactopyranoside induction or autoinduction method as described previously[39],[72],[73]. To obtain the Retromer trimer complex, the GST-tagged Vps29 and Vps35 co-expressed cell pellet were mixed with His-Vps26 and resuspended in lysis buffer containing 50 mM Tris-HCl pH 7.5, 200 mM NaCl, 5% glycerol, 50 μg/ml benzamidine and DNase I before passed through a Constant System TS-Series cell disruptor. […] For all constructs, the lysate was clarified by centrifugation and the supernatant was loaded onto either Talon® resin (Clonetech) or glutathione sepharose (GE healthcare) for initial purification. To obtain the correct stoichiometry ratio of the Retromer complex, both Talon® resin and glutathione sepharose (GE healthcare) were applied. […] The flow-through containing complex was further purified using size-exclusion chromatography (SEC) equilibrated with a buffer containing 50 mM Tris-HCl pH 7.5, 200 mM NaCl, 2 mM β-ME. […] To avoid the non-specific cleavage by the residual proteases such as thrombin, a tablet of protease inhibitor cocktail was added into the complex mixture. To remove the unbound fractions, the complex mixture was further purified using Superose 6 increase 10/300 GL column using the SEC buffer described above.
(§2) All the proteins used for ITC experiments were prepared in buffer containing 50 mM Tris-HCl pH 7.5, 200 mM NaCl, 2 mM β-ME. […] In all cases, the ITC titration sequence consisted of an initial 0.4 μl (not used in data processing) followed by 12 serial injections of 3.22 μl each with 180 s intervals. The resulting titration data were integrated with Malvern software package by fitting and normalized data to a single-site binding model, yielding the thermodynamic parameters Kd, ∆H, ∆G and −T∆S for all binding experiments. The stoichiometry was refined initially, and if the value was close to 1, then N was set to exactly 1.0 for calculation. Data presented are the mean of triplicate titrations for each experiment.
In general terms: Isothermal titration calorimetry measures the heat released or taken up as one component is titrated into another.

The next assay deals with ctRetromer (Thermochaetoides thermophila, UniProt G0RZB5+G0S709). The assay is described as follows: ITC, binding to ctRetromer. On the set-up: species or system Chaetomium thermophilum. The protocol:
as §1
In brief, the clarified lysate was loaded onto glutathione sepharose (GE healthcare) and eluted using elution buffer containing 50 mM Tris-HCl pH 7.5, 200 mM NaCl, 5% glycerol, 20 mM glutathione reduced and 50 μg/ml benzamidine. The flow-through was further purified using SEC as the final purification step. To avoid the degradation, the constructs containing N-terminal disordered parts of Vps5 and Vps17 were used in fresh and experiments were finished within 3 days after purification.
as §2

Assay [1] has as its target ctRetromer (Chaetomium thermophilum Retromer trimer of ctVps35, ctVps26 and ctVps29) (Chaetomium thermophilum). Nature of the assay: ITC; Microcal PEAQ ITC, 25 °C, 50 mM Tris-HCl pH 7.5, 200 mM NaCl, 2 mM β-ME; Vps5/Vps17/SNX1 construct or peptide (200-400 µM) titrated into 10-15 µM Retromer or Vps29; single-site model, N set to 1.0 if close to 1.
Assay [2] addresses mouse VPS29 (mVPS29), long isoform (mouse). Described as above.
Assay [3] relates to scRetromer and scSNX-BAR on supported membrane tubes. The assay is described as follows: Supported membrane tube (SMT) assay. It counts as biochemical, Saccharomyces cerevisiae. The note with it: scSNX-BAR and scRetromer on SMTs containing 5% PtdIns(3)P.
Experimental: Supported membrane tubes were generated as described[46]. Briefly, glass coverslips were first washed with 3 M NaOH for 5 min and rinsed with water before a 60 min treatment with piranha solution (95% H2SO4/30% H2O2 3:2 v/v). Coverslips were rinsed with water and dried on a heat block at 90 °C. Coverslips were then silanized with 3-glycidyloxypropyltrimethoxysilane (Catalogue no. 440167, Sigma) for 5 h under vacuum, rinsed with acetone and dried. Polyethylene glycol coating was done by placing the coverslips in a beaker containing PEG400 (Sigma) at 90 °C for 60 h. Coverslips were washed with distilled water and stored for up to 2 months at room temperature in a closed container.
To generate supported membrane tubes, lipids were mixed from 10 mg/mL stocks in a glass vial and diluted to a final concentration of 1 mg/mL in chloroform. The same lipid mix was used throughout this study (5% PI(3)P, 15% DOPS, 0.1% fluorescent lipid tracer (Cy5.5 PE or Texas red DHPE), 79.5% egg-PC). Lipids were then spotted (typically 1 µL, corresponding to about 1 nmol) on the coverslips and dried for 30 min under vacuum. The coverslip was mounted on an IBIDI 6-channel µ-slide (µ-Slide VI 0.4. IBIDI, catalog no: 80606). Lipids were hydrated for 15 min with buffer (PBS) and SMTs were generated by injecting PBS into the chamber using an Aladdin Single-Syringe Pump (World Precision Instruments, model n°. AL-1000) at a flow rate of 1,5 mL/min for 5 min. SMTs were left to stabilize without flow for 5 min before the start of the experiment. Protein stocks (typically 1–2 µM) were first diluted in PBS and then injected in the chamber at a flow rate of 80 µL per minute. Cyclic peptides were added to the proteins from a 30 mM stock in DMSO to a final concentration of 300 µM. the protein/peptide mix was incubated for 1 min at room temp (23 °C) before being added to the SMTubes.
The target in another assay is T2, hRetromer (Homo sapiens, UniProt Q96QK1+Q9UBQ0).
T2 construct: GST (N); made in house; host or cells: E. coli BL21(DE3) (general statement for bacterial constructs)
The assay is described as follows: ITC, binding to hRetromer. The note with it: for binding to hRetromer: ITC, same conditions as ctRetromer. The protocol: as §1, §2

The mark [4] stands for this setting: ctRetromer alone, ITC 25 °C, pH 7.5, 200 mM NaCl, mean of triplicate titrations.
The mark [5] stands for this setting: ITC, ctRetromer, Average of 3 batches.

This is an account of results in publication PMC12000511, “Molecular basis for the assembly of the Vps5-Vps17 SNX-BAR proteins with Retromer” (Nature Communications, 2025).

Like-named read-outs stand apart in the source and are kept apart here. Where no end group is shown, it is not given here.

Sequence of ctRetromer (G0RZB5 entry or part of it): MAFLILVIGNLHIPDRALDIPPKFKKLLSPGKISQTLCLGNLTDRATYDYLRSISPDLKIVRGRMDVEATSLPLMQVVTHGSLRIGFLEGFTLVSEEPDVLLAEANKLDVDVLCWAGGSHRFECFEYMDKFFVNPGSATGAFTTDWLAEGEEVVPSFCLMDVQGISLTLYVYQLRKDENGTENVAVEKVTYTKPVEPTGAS
Sequence of ctRetromer (G0S709 entry or part of it): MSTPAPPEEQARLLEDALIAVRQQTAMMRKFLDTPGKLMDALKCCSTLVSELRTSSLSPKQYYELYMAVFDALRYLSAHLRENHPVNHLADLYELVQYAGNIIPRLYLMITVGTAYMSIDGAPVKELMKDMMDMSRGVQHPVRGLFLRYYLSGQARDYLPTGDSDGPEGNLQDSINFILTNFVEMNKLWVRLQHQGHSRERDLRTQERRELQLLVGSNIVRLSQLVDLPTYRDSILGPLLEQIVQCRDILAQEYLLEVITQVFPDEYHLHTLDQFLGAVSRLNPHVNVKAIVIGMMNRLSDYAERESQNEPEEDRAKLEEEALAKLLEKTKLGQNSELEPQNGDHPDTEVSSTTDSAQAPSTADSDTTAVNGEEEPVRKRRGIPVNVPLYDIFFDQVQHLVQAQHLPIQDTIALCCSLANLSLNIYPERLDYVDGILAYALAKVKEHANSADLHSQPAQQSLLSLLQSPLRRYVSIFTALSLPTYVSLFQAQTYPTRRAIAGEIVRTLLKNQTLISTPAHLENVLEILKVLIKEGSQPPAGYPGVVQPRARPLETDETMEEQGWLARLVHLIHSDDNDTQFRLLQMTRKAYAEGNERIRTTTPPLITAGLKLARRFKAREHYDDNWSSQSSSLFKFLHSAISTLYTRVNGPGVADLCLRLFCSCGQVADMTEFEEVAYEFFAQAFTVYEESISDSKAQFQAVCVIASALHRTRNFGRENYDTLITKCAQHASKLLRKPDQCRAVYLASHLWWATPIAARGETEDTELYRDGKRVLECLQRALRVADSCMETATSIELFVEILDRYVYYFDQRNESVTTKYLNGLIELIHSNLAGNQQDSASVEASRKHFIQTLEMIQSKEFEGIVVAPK
Sequence of ctRetromer (G0S0E6 entry or part of it, further chain): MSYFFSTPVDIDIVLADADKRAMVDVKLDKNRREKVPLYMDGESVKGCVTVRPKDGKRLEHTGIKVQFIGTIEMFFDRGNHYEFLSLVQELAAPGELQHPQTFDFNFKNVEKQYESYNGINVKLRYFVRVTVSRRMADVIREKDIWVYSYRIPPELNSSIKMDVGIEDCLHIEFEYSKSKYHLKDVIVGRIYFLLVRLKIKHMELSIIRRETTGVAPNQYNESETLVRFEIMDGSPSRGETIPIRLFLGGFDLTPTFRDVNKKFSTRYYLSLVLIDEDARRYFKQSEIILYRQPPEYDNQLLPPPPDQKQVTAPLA

The Kd is the equilibrium constant for the complex coming apart. Regarding EDDPLGPLGA [ctVPS5 71 to 80], the “Delta G” value at mVps29 (Average of 3 batches) is reported as -5.8 kcal/mol; on mVps29 (Batch 1), -5.92 kcal/mol; at mVps29 (Batch 2), -5.8 kcal/mol; at mVps29 (Batch 3) it was -5.82 kcal/mol. Also, the “Delta H” value at mVps29 (Average of 3 batches) is -8.0 kcal/mol; at mVps29 (Batch 1), -6.98 kcal/mol; on mVps29 (Batch 2), -9.07 kcal/mol; at mVps29 (Batch 3), -7.81 kcal/mol. The Kd entry at ctRetromer (ITC, ctRetromer, Batch 1) is listed as “No binding”; at ctRetromer (ITC, ctRetromer, Batch 2), “No binding”; on ctRetromer (ITC, ctRetromer, Batch 3), “No binding”.

For the molecule “GST-ctVps5_61–80: GST-tagged ctVps5 residues 61–80 (VAKPKSLEAVEDDPLGPLGA; not fully specified (N-terminus); also: GST fusion, end not given here)”, in the assay with ctRetromer (ITC 25 °C, pH 7.5, 200 mM NaCl), the “binding to ctRetromer” value is “bind very weakly”. For the same molecule, in the assay with ctRetromer (setting [4]), the ΔG was -5.76 ± 0.12 kcal/mol, the ΔH was -7.22 ± 1.94 kcal/mol and the “−TΔS” value turned out to be 1.45 ± 2.07 kcal/mol. Moreover, the Kd with ctRetromer (ctRetromer alone, Microcal PEAQ ITC, 25 °C, 50 mM Tris-HCl pH 7.5, 200 mM NaCl, 2 mM β-ME, single-site model, mean of triplicate titrations, read-out: Kd) stood at 60.1 ± 12.2 µM.

In assay [1], GST-ctVps5_(1–50) (domain or fragment) had a Kd of 40.1 µM and a dH of -2.7 kcal/mol.

In assay [2], GST-ctVps5_(1–185) (domain or fragment) showed a Kd of 4.82 µM and a dH of -0.91 kcal/mol. In assay [1], this molecule returned a Kd of 0.72 µM and a dH of -3.1 kcal/mol.

In assay [1], “GST-ctVps5_(51–100) PL74AA (domain or fragment)” showed a Kd of 5.04 µM and a dH of -1.76 kcal/mol.

Take “SRATPRRIVAKPKSLEAVEDDPLGPLGA [ctVPS5 53 to 80]”: the “Delta G” value at ctRetromer (setting [5]) is -8.38 kcal/mol; on ctRetromer (ITC, ctRetromer, Batch 1), -8.4 kcal/mol; at ctRetromer (ITC, ctRetromer, Batch 2) it was -8.35 kcal/mol; on ctRetromer (ITC, ctRetromer, Batch 3) it was -8.38 kcal/mol. Also, the “Delta H” value is -2.83 kcal/mol on ctRetromer (setting [5]); -3.44 kcal/mol on ctRetromer (ITC, ctRetromer, Batch 1); -2.43 kcal/mol at ctRetromer (ITC, ctRetromer, Batch 2); -2.62 kcal/mol on ctRetromer (ITC, ctRetromer, Batch 3). The “minus T delta S” value is -5.57 kcal/mol at ctRetromer (setting [5]); -4.89 kcal/mol on ctRetromer (ITC, ctRetromer, Batch 1); -5.98 kcal/mol at ctRetromer (ITC, ctRetromer, Batch 2); -5.85 kcal/mol at ctRetromer (ITC, ctRetromer, Batch 3).

Regarding “SRATPRRIVAKPKSLEAVEDDPLGPLGA [ctVps5_53–80 peptide]”, on ctRetromer (read-out: Kd), the Kd is 0.74 ± 0.05 µM.

In assay [2], ctVps5_(71–80) peptide registered a Kd of 54.1 µM and a dH of -8 kcal/mol.

On to “scRetromer-mRuby: purified recombinant scRetromer carrying mRuby”, for which the “coat formation / recruitment on SMTs” value in assay [3] was “co-recruited to the tubes within a minute after their addition”.

B1: GST-ctVps5_(61–80) (domain or fragment)
chain: VAKPKSLEAVEDDPLGPLGA
modifications: also: GST fusion
In assay [1], B1 returned a Kd of 60.1 µM and a dH of -7.22 kcal/mol.

B2: GST-mSNX1_1–139: SNX1 N-terminal residues 1–139 (protein)
chain: MASGGGGCSASERLPPPFPGLEPESEGAAGGSEPEAGDSDTEGEDIFTGAAVVSKHQSPKITTSLLPINNGSKENGIHEEQDQEPQDLFADATVELSLDSTQNNQKKVLAKTLISLPPQEATNSSKPQPTYEELEEEEQ
modifications: left off: GST, end not stated, kept
On to B2, for which the Kd entry in the assay with hRetromer (ITC 25 °C, 50 mM Tris-HCl pH 7.5, 200 mM NaCl, 2 mM β-ME, mean of triplicate titrations) is “No binding detected”. Further, the entries for the “binding to hRetromer” value with hRetromer (listed as GST-hSNX1_1–139) and with hRetromer (listed as human SNX1) were “no detectable interaction” and “no detectable association”, respectively.

B3: ctVps5_(53–80) peptide (peptide)
peptide: SRATPRRIVAKPKSLEAVEDDPLGPLGA
Turning to B3, in assay [1], the Kd came to 0.74 µM and the dH was -2.83 kcal/mol.

B4: scSNX-BAR-GFP: scVps5–scVps17 heterodimer tagged with GFP (protein)
chain 1: MDYEDNLEAPVWDELNHEGDKTQSLVSNSIESIGQISTNEERKDNELLETTASFADKIDLDSAPEWKDPGLSVAGNPQLEEHDNSKADDLINSLAPEQDPIADLKNSTTQFIATRESGGALFTGNANSPLVFDDTIYDANTSPNTSKSISGRRSGKPRILFDSARAQRNSKRNHSLKAKRTTASDDTIKTPFTDPLKKAEKENEFVEEPLDDRNERRENNEGKFTASVEKNILEQVDRPLYNLPQTGANISSPAEVEENSEKFGKTKIGSKVPPTEKAVAFKVEVKDPVKVGELTSIHVEYTVISESSLLELKYAQVSRRYRDFRWLYRQLQNNHWGKVIPPPPEKQSVGSFKENFIENRRFQMESMLKKICQDPVLQKDKDFLLFLTSDDFSSESKKRAFLTGSGAINDSNDLSEVRISEIQLLGAEDAAEVLKNGGIDAESHKGFMSISFSSLPKYNEADEFFIEKKQKIDELEDNLKKLSKSLEMVDTSRNTLAASTEEFSSMVETLASLNVSEPNSELLNNFADVHKSIKSSLERSSLQETLTMGVMLDDYIRSLASVKAIFNQRSKLGYFLVVIENDMNKKHSQLGKLGQNIHSEKFREMRKEFQTLERRYNLTKKQWQAVGDKIKDEFQGFSTDKIREFRNGMEISLEAAIESQKECIELWETFYQTNL
chain 2: MTSAVPYDPYDDLDNNPFAEPQEEDSEPAATTTDGSSSMSEERVGTEQTAASVQDNGTANNIQNGLGEEGNATRSKTSNEHNENQQPSQPSERVILPERSDEKKKYTLLAKVTGLERFGSATGKKENPTIIFDCSTNLPTFRKQQYKNVKKSYEEFHQLFKYLNVAIQESFVPTLPSAYTTFGINSEEDRMKVTRNFQLWFNRLSQDPLIIRNEEVAFFIESDFNTYTPINKSKSLASGLKRKTLKQLAPPYDEITELAEFRPLVKSIYVVSQSLQEKLLRVSRNRKMMVQEENAFGQDFVNLDEHNKLYRRYGKILTAVGDIDSIIATMDMATLYDGLEWIVRDAYAVKEALTNRHFIMRNLVQAQQNSKAKQEQARRFRSRRDINPMKIDEALRQLKAAAKNEQVLTLKLQRITSNMIIERKQWISWYEEWIRSSIKEFTLRKIEYERKKLTLLERVRSDIRKADENGGLSRLGRHAVSNNNSDTSQTLKGDSWTGESNRKSQIPINKIAHTEFDDELFTEDDGYNSQDSDTTSLNARHAASLLGMSTK
Regarding B4, in assay [3], the “coat formation / recruitment on SMTs” value is given as “co-recruited to the tubes within a minute after their addition”.
